The subject of data set [1] is MCF-7 breast carcinoma cell line. Put plainly: Growth inhibition of tumor cell lines in vitro (MTT / cell counting). The conditions noted are these: MCF-7, 3 days. Type of data set: cell-based, human. As for the experimental part:
(§1) The experiments were carried out on a murine lymphocytic leukemia cell line (L1210) and five human tumor cell lines: CEM, HeLa, NCI-H460, SW 620 and MCF-7. The cells were cultured as monolayers and maintained in Dulbecco′s modified Eagle medium (DMEM) supplemented with 10% fetal bovine serum (FBS), 2 mM L-glutamine, 100 U/mL penicillin and 100 μg/mL streptomycin in a humidified atmosphere with 5% CO2 at 37 °C.
(§2) The growth inhibition activity of the compounds was assessed as described previously. The cell lines were inoculated onto a series of standard 96-well microtiter plates on day 0, at 1.5 × 10^4 cells/mL (SW 620, H460) to 2.5 × 10^4 cells/mL (MCF-7, CEM and L1210), depending on the growth of the tumor cell line. Test agents were then added in ten-fold dilutions (10^−8 to 10^−4 M) and the cell cultures were then incubated for 3–4 days with 5% CO2 at 37 °C. Working dilutions of the compounds were freshly prepared on the day of testing.
(§3) After 3 (MCF-7, SW 620, NCI-H460) or 4 days (CEM, L1210), the cell growth rate was evaluated first light microscopically, then by viable cell counting and/or by performing the MTT assay, which detects dehydrogenase activity in live, not dead, cells. The absorbance (A) was measured on a microplate reader at 570 nm. The absorbance is directly proportional to the number of living, metabolically active cells. […] If however, all of the tested concentrations produce PGs exceeding the respective reference level of effect (e.g., PG value of 50), then the highest tested concentration is assigned as the default value, which is preceded by a “>” sign. Minimum two individual experiments were carried out and each test point was performed in quadruplicate.

Data set [2] has as its system NCI-H460 lung carcinoma cell line. The data set is described as above. Type of data set: cell-based, human. The settings on record: NCI-H460, 3 days. As for the experimental part: as §1, §2, §3
For another data set, the system named is colon carcinoma HCT 116. Kind of data set: Growth inhibition of tumor cell lines in vitro (reference drugs). It counts as cell-based. The conditions noted are these: colon carcinoma HCT 116 (footnote b, printed in SW 620 column).
Data set [3] concerns SW 620 colon carcinoma cell line. Put plainly: Growth inhibition of tumor cell lines in vitro (MTT / cell counting). Type of data set: cell-based. The settings on record: Homo sapiens, 72 h; SW 620, 3 days. As for the experimental part: as §1, §2, §3
Data set [4] has as its system L1210 murine lymphocytic leukemia cell line. Described as above. It counts as cell-based. The conditions noted are these: Mus musculus, 96 h; L1210, 4 days. As for the experimental part: as §1, §2, §3
Data set [5] deals with HeLa cervical carcinoma cell line. Described as above. Type of data set: cell-based. The settings on record: Homo sapiens. As for the experimental part:
as §1, §2, §3

Data set [6] concerns CEM acute lymphoblastic leukemia cell line. Described as above. Type of data set: cell-based. The conditions noted are these: Homo sapiens, 96 h, 4 days. As for the experimental part: as §1, §2, §3
Data set [7] has as its target T1, soybean lipoxygenase (LOX) (Glycine max, UniProt P08170).
T1 construct: purchased Sigma-Aldrich
T1 sequence (P08170 1-839): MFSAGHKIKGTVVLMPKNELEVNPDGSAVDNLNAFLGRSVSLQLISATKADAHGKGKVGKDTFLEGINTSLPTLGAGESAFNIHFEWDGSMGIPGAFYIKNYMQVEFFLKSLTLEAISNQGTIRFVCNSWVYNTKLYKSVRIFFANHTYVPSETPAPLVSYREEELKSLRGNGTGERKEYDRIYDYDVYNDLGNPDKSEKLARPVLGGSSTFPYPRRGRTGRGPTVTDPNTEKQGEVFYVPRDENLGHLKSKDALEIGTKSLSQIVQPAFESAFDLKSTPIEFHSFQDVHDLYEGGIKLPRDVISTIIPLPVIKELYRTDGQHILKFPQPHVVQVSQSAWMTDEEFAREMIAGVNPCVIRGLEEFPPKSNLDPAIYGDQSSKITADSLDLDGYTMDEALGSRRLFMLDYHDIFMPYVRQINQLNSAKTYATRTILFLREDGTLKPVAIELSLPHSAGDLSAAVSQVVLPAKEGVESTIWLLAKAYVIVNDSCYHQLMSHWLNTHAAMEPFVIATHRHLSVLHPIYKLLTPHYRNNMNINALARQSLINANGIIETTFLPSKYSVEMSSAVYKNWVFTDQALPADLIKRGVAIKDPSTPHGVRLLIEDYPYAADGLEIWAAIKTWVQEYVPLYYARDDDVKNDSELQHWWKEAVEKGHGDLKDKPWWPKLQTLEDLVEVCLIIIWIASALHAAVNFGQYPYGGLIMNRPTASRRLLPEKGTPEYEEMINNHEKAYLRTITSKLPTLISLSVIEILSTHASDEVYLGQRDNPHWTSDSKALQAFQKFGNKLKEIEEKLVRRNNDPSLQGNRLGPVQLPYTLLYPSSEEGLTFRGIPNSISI
Kind of data set: LOX inhibition study in vitro. The conditions noted are these: values in parentheses in Table 3. Type of data set: biochemical. As for the experimental part:
LOX inhibitory assay in vitro was accomplished as described previously. The test compounds (stock solutions 10 mM in DMSO) were incubated at room temperature with sodium linoleate (c = 0.1 mM) and 0.2 mL of LOX enzyme solution (1/9 × 10^−4 m/V in saline). The conversion of sodium linoleate to 13-hydroperoxylinoleic acid was measured at 234 nm and compared with the reference inhibitor. Several concentrations were used for the IC50 determination.

A short description of data set [8]: Inhibition of linoleic acid peroxidation (AAPH-induced). The settings on record: 5 × 10^−5 M. As for the experimental part: For initiating the lipid peroxidation free radical AAPH was used. Final solution in the UV cuvette consisted of 10 μL linoleate sodium solution (c = 16 mM), 0.93 mL phosphate buffer (c = 0.05 M), pH 7.4, thermostated at 37 °C. 50 μL AAPH solution (c = 40 mM) and 10 μL of the tested compounds were added. The experiment was performed at 37 °C under air. The oxidation of linoleic acid sodium salt was monitored at 234 nm. The assays were repeated at least in triplicate and the standard deviation of absorbance was less than 10% of the mean. Trolox was used under the same experimental conditions as a reference compound.

Another data set relates to human coronavirus (229E). Put plainly: microbe, parasite or virus in culture. It counts as cell-based. The settings on record: read-out: EC50 (concentration required to reduce virus-induced cytopathogenicity by 50%), HEL cell cultures. In general terms: Protection from cytopathic effect is a common read-out in antiviral testing.
The nature of data set [9]: Interaction with the stable radical DPPH (reducing ability). As for the experimental part: To a solution of DPPH in absolute ethanol the appropriate volume of the compounds (50 or 100 µM final concentrations) dissolved in DMSO was added. The absorbance was recorded at 517 nm after 20 and 60 min at room temperature. The experiments were repeated at least in triplicate and the standard deviation of absorbance was less than 10% of the mean. NDGA was used under the same experimental conditions as a reference compound.
(In general: Loss of DPPH colour is used to gauge radical scavenging.)

The test system of the next data set is HEL cells. Kind of data set: Cytotoxicity assay, alteration of HEL cell morphology (MCC). It counts as cell-based, human. The conditions noted are these: 3 days. As for the experimental part: Cytotoxicity measurements were based on the inhibition of HEL cell growth. Cells were seeded at 5 × 10^3 cells/well into 96-well microtiter plates. Then, medium containing different concentrations of the test compounds was added. After 3 days of incubation at 37 °C, the alteration of morphology of the cell cultures was recorded light microscopically. Cytotoxicity was expressed as MCC.

One may read the IC50 as the concentration that inhibits the measured activity by half.

Turning to `N.N.[Cl][Pt][Cl]` [CIS, cisplatin, reference compound], the values for the IC50 (in [1]; in [2]; in the data set with colon carcinoma HCT 116) were 10 ± 1 µM, 1 ± 0.1 µM and 7 ± 2 µM, respectively.
Take `COc1cc(NC(C)CCCN)c2ncccc2c1` (stereo not shown) [PQ, primaquine]: the IC50 is 28 ± 10 µM in [1] (Homo sapiens, MCF7, 72 h); 30 ± 7 µM in data set [2] (Homo sapiens, 72 h); 20 ± 6 µM with colon carcinoma HCT 116 (Homo sapiens).
As for `COc1cc(NC(C)CCCNC(=O)NNC(=O)/C(C)=C/c2ccccc2)c2ncccc2c1` (stereo not shown) [7b, (E)-4-(4-(6-Methoxyquinolin-8-ylamino)pentyl)-1-(2-methyl-3-phenylacryloyl)semicarbazide], the IC50 was 9.5 ± 0.9 µM in data set [3]; 53 ± 5 µM in data set [4]; 47 ± 6 µM in data set [5]; 25 ± 14 µM in data set [6]; 100 µM in [7]; 16 ± 9 µM in data set [1] (Homo sapiens, MCF7, 72 h). In data set [2] (Homo sapiens, 72 h), this compound showed an IC50 of 50 ± 4 µM. The “LP Inhibition (%)” value in [8] turned out to be 62%. For the same compound, the EC50 with human coronavirus (229E) was found to be 15 µM. The “DPPH-reducing ability RA (%)” value in data set [9] (1 × 10^−4 M, 20 min) was 84%; in data set [9] (1 × 10^−4 M, 60 min), 99%; in data set [9] (5 × 10^−5 M, 20 min) it was 42%; in data set [9] (5 × 10^−5 M, 60 min) it was 100%.
On to `COc1ccc(/C=C/C(=O)NNC(=O)NCCCC(C)Nc2cc(OC)cc3cccnc23)cc1` (stereo not shown) [7c, (E)-1-(3-(4-Methoxyphenyl)acryloyl)-4-(4-(6-methoxyquinolin-8-ylamino)pentyl)semicarbazide], for which the IC50 in data set [3] was more than 100 µM; in data set [4], 1.7 ± 0.4 µM; in [5] it was 2.4 ± 0.2 µM; in [6], 1.3 ± 0.7 µM; in data set [7], 50 µM; in [1] (Homo sapiens, MCF7, 72 h) it was 0.4 ± 0.2 µM. The same compound displayed an IC50 in [2] (Homo sapiens, 72 h) of more than 100 µM. Further, the “LP Inhibition (%)” value in [8] was found to be 89%. Further, the “DPPH-reducing ability RA (%)” value in data set [9] (1 × 10^−4 M, 20 min) was determined as 39%; in data set [9] (1 × 10^−4 M, 60 min), 100%; in data set [9] (5 × 10^−5 M, 20 min), 54%; in [9] (5 × 10^−5 M, 60 min) it was 100%. Also, the “MCC (minimum cytotoxic concentration)” value in the data set with HEL cells is “around 20 μΜ”.
`COc1cc(NC(C)CCCNC(=O)NNC(=O)/C=C/c2cc(C(F)(F)F)cc(C(F)(F)F)c2)c2ncccc2c1` (stereo not shown) [7k, (E)-1-(3-(3,5-Bis(trifluoromethyl)phenyl)acryloyl)-4-(4-(6-methoxyquinolin-8-ylamino)pentyl)semicarbazide]: the IC50 in data set [3] is 32 ± 4 µM; in [4] it was 30 ± 17 µM; in [5], 30 ± 23 µM; in data set [6], 17 ± 5 µM; in data set [7], 67.5 µM; in data set [1] (Homo sapiens, MCF7, 72 h), 3.2 ± 0.8 µM. This compound also displayed an IC50 in data set [2] (Homo sapiens, 72 h) of 48 ± 2 µM. Also, in data set [8], the “LP Inhibition (%)” value is 55%. For the same compound, the EC50 in the data set on human coronavirus (229E) stood at 8.4 µM. Moreover, the “DPPH-reducing ability RA (%)” value in [9] (1 × 10^−4 M, 20 min) is reported as 98%; in data set [9] (1 × 10^−4 M, 60 min), 97%; in [9] (5 × 10^−5 M, 20 min), 72%; in data set [9] (5 × 10^−5 M, 60 min), 100%.
As for `O=c1[nH]cc(F)c(=O)[nH]1` [5-FU, 5-fluorouracil, reference compound], the IC50 in [4] was 0.5 ± 0.2 µM; in [5], 0.54 ± 0.1 µM; in data set [6], 18 ± 5 µM; in data set [2] (Homo sapiens, 72 h) it was 3 ± 0.3 µM; with colon carcinoma HCT 116 (Homo sapiens), 4 ± 0.7 µM.
For the compound `COc1cc(NC(C)CCCNC(=O)NNC(=O)/C=C/c2ccc3c(c2)OCO3)c2ncccc2c1` (stereo not shown) [7f, (E)-1-(3-(Benzo[d][1,3]dioxo-5-yl)acryloyl)-4-(4-(6-methoxyquinolin-8-ylamino)pentyl)semicarbazide], the IC50 in [3] was found to be 17 ± 5 µM; in data set [4] it was 4.8 ± 0.2 µM; in data set [5], 31 µM; in [6], 7.4 ± 2.1 µM; in data set [7] it was 55 µM; in data set [1] (Homo sapiens, MCF7, 72 h) it was 0.6 ± 0.3 µM. Also, the IC50 in data set [2] (Homo sapiens, 72 h) stood at 27 ± 3 µM. Further, the “LP Inhibition (%)” value in data set [8] stood at 88%. In the data set on human coronavirus (229E), the EC50 was 12.5 µM. Also, the “DPPH-reducing ability RA (%)” value was 74% in data set [9] (1 × 10^−4 M, 20 min); 100% in data set [9] (1 × 10^−4 M, 60 min); 47% in data set [9] (5 × 10^−5 M, 20 min); 100% in data set [9] (5 × 10^−5 M, 60 min).
As for `COc1cc(NC(C)CCCNC(=O)NNC(=O)/C=C/c2cccc(C(F)(F)F)c2)c2ncccc2c1` (stereo not shown) [7i, (E)-4-(4-(6-Methoxyquinolin-8-ylamino)pentyl)-1-(3-(3-(trifluoromethyl)phenyl)acryloyl)semicarbazide], the IC50 came out at 16 ± 5 µM in [3]; 9.4 ± 4.8 µM in [4]; 10 ± 1 µM in data set [5]; 10 ± 1 µM in [6]; 42.5 µM in data set [7]; 2.3 ± 0.2 µM in [1] (Homo sapiens, MCF7, 72 h). In [2] (Homo sapiens, 72 h), this compound displayed an IC50 of 18 ± 3 µM. In addition, the “LP Inhibition (%)” value in [8] was found to be 84%. Besides, in the data set with human coronavirus (229E), the EC50 was determined as 7.9 µM. For the same compound, the “DPPH-reducing ability RA (%)” value stood at 96% in [9] (1 × 10^−4 M, 20 min); 73% in data set [9] (1 × 10^−4 M, 60 min); 71% in data set [9] (5 × 10^−5 M, 20 min); 100% in [9] (5 × 10^−5 M, 60 min).

Values taken from paper PMC6273687, “Design, Synthesis and Biological Evaluation of Novel Primaquine-Cinnamic Acid Conjugates of the Amide and Acylsemicarbazide Type” (Molecules, 2016).
